Reference: article PMC7429991 (Journal of medicinal chemistry, 2020)
Counter-ions that a name gives are not always drawn.

Key:
rat nNOS (rnNOS) = rat nNOS (rnNOS) (Rattus norvegicus, UniProt P29476)
[1] = from PAMPA-BBB Pe
[2] = tested on: panel of 45 pharmacologically relevant CNS targets and receptors; assay: PDSP off-target radioligand displacement screen; assay type: binding; conditions: for fraction of concerning or moderate hits: PDSP panel; for PDSP targets classified moderate / PDSP targets classified insignificant / PDSP targets classified weak / PDSP targets classified Concerning: number of 45 targets; for PDSP targets classified moderate: 100–300 nM; for PDSP targets classified insignificant: <50% bound at 10 μM; for PDSP targets classified weak: >300 nM
human eNOS (heNOS) = human eNOS (heNOS) (Homo sapiens, UniProt P29474)
M336V/D597N rnNOS = M336V/D597N rnNOS (Rattus norvegicus, UniProt P29476, D597N/M336V); conditions: M336V/D597N vs D597N rnNOS
Chain of M336V/D597N rnNOS (P29476 whole entry M336V/D597N): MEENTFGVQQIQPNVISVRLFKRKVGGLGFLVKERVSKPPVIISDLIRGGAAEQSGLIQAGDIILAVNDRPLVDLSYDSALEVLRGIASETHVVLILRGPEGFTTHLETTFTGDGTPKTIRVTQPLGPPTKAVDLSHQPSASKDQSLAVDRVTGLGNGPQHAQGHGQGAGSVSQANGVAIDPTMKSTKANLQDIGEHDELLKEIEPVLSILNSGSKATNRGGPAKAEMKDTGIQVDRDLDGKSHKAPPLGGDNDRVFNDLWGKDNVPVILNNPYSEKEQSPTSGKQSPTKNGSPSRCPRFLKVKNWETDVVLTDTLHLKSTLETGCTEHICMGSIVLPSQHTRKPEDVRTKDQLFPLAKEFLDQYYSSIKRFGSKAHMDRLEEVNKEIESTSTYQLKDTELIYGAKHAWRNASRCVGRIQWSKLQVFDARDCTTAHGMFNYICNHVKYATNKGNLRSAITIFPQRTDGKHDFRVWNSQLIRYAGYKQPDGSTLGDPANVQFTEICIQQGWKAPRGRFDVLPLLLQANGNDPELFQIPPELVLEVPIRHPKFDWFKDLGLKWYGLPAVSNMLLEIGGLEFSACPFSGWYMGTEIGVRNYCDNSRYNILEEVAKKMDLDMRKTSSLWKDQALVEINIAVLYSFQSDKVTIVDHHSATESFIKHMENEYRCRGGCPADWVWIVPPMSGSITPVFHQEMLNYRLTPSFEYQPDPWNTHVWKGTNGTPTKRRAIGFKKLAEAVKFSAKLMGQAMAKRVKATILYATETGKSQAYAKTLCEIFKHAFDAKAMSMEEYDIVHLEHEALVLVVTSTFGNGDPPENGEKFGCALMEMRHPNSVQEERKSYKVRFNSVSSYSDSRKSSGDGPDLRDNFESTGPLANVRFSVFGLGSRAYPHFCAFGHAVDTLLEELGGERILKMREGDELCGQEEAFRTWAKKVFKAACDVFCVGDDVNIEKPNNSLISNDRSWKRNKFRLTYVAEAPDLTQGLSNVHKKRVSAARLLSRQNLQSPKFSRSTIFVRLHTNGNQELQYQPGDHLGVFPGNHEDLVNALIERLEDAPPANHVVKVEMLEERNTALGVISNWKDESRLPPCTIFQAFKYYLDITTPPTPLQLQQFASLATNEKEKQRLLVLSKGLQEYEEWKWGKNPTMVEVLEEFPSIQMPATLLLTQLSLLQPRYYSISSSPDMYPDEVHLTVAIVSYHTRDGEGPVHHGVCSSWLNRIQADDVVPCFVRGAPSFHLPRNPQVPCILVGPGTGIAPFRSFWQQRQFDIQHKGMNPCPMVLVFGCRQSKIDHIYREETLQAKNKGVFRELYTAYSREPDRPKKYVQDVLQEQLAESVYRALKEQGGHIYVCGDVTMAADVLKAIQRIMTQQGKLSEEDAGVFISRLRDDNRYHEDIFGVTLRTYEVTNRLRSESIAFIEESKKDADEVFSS

D597N rnNOS = D597N rnNOS (Rattus norvegicus, UniProt P29476, D597N)
human iNOS (hiNOS) = human iNOS (hiNOS) (Homo sapiens, UniProt P35228); conditions: read-out: Ki hiNOS; purified human iNOS; Ki from IC50 (Cheng-Prusoff)
H2 receptor = H2 receptor (Homo sapiens, UniProt P25021); assay: PDSP off-target binding, H2 receptor
Chain of H2 receptor (P25021 whole entry): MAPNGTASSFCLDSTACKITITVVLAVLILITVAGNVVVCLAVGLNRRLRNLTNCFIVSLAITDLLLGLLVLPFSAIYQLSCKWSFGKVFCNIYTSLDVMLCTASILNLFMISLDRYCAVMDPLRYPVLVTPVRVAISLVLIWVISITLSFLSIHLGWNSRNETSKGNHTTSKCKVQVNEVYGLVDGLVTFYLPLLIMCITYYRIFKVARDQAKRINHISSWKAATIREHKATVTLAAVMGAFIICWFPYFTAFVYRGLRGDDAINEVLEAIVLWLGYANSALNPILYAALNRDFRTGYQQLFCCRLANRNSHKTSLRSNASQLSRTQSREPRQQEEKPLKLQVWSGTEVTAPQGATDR

H3 receptor = H3 receptor (Homo sapiens, UniProt Q9Y5N1); assay: PDSP off-target binding, H3 receptor
Chain of H3 receptor (Q9Y5N1 whole entry): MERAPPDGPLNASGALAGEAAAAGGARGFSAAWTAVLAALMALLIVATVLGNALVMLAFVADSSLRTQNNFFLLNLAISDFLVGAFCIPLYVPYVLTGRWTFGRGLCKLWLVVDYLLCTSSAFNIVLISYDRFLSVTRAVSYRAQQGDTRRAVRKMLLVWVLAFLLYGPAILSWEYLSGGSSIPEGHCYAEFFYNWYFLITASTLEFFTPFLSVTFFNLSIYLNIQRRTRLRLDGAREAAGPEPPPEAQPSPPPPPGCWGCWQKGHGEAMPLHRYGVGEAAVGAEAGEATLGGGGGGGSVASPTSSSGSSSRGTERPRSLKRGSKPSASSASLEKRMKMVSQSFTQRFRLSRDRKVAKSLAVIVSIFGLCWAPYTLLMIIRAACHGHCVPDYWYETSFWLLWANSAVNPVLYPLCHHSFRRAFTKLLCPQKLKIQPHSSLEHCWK

Molecule: CNCCc1ccc(-c2ccc3c(C)cc(N)nc3c2)cc1.Cl.Cl [compound 6, 4-Methyl-7-(4-(2-(methylamino)ethyl)phenyl)quinolin-2-amine Dihydrochloride]
- loss in rnNOS activity (rat nNOS (rnNOS); relative to 5): > 2 fold

Molecule: Cc1cc(N)nc2cc(-c3cncc(CN)c3)ccc12.Cl.Cl.Cl [compound 15, 7-(5-(Aminomethyl)pyridin-3-yl)-4-methylquinolin-2-amine Trihydrochloride]
- less potent than 12 in rnNOS (rat nNOS (rnNOS); relative to 12): approximately 5 fold

Molecule: Cc1cc(N)nc2cc(-c3ccc(OCc4cccnc4)c(CN)c3)ccc12 [compound 33, 7-(3-(Aminomethyl)-4-(pyridin-3-ylmethoxy)phenyl)-4-methylquinolin-2-amine Trihydrochloride]
- prediction (CNS) [1]: CNS (+) (classified as a “CNS (+)” molecule if its effective permeability (Pe) in this assay is larger than 4.0 × 10^–6 cm s^–1)
- fraction of concerning or moderate hits [2]: 8 /45
- PDSP targets classified moderate [2]: 5
- PDSP targets classified insignificant [2]: 20
- PDSP targets classified weak [2]: 17
- PDSP targets classified Concerning ([2]; […]): 3
- improvement in binding affinity toward heNOS (human eNOS (heNOS); 33 versus 32): 3 fold

Molecule: Cc1cc(N)nc2cc(-c3ccc(CN)cc3)ccc12.Cl.Cl [compound 7, 7-(4-(Aminomethyl)phenyl)-4-methylquinolin-2-amine Dihydrochloride]
- prediction (CNS) [1]: CNS (+) (classified as a “CNS (+)” molecule if its effective permeability (Pe) in this assay is larger than 4.0 × 10^–6 cm s^–1)
- increase in rnNOS activity (rat nNOS (rnNOS); relative to 5): 2.3 fold

Molecule: Cc1cc(N)nc2cc(-c3ccc(OCc4cocn4)c(CN)c3)ccc12 [compound 36, 7-(3-(Aminomethyl)-4-(oxazol-4-ylmethoxy)phenyl)-4-methylquinolin-2-amine Trihydrochloride]
- increased potency against the double mutant (versus the single mutant) (M336V/D597N rnNOS): 5 fold

Molecule: Cc1cc(N)nc2cc(-c3ccc(OCc4ccccn4)c(CN)c3)ccc12 [compound 32, 7-(3-(Aminomethyl)-4-(pyridin-2-ylmethoxy)phenyl)-4-methylquinolin-2-amine Trihydrochloride]
- fraction of concerning or moderate hits [2]: 11 /45
- PDSP targets classified insignificant [2]: 12
- PDSP targets classified weak [2]: 22
- PDSP targets classified Concerning ([2]; […]): 4

Molecule: 7-(3-(2-Aminoethyl)phenyl)-4-methylquinolin-2-amine Dihydrochloride [compound 12]
- Ki (D597N rnNOS; read-out: Ki D597N rnNOS, single mutant (SM) of rat nNOS): 416 nM
- decrease in potency, D597N mutant (D597N rnNOS; versus wild type): 8 fold
- Ki (human iNOS (hiNOS)): 29.9 µM
- prediction (CNS) [1]: CNS (+) (classified as a “CNS (+)” molecule if its effective permeability (Pe) in this assay is larger than 4.0 × 10^–6 cm s^–1)
- off-target binding class, H2 receptor (H2 receptor): concerning (concerning (Ki < 100 nM, or <~2 × nNOS Ki value))
- % remaining at 60 min (- NADPH) (HLM without NADPH, pH 7.4): 87%
- % remaining at 60 min (Buffer) (buffer control): 67%
- CLint (in vitro intrinsic clearance, HLM): 8 mL/min/kg
- Ki (human eNOS (heNOS); read-out: Ki heNOS, purified human eNOS, Ki calculated from IC50): 52.6 µM

Molecule: Cc1cc(N)nc2cc(-c3ccc(OCC4CC4)c(CN)c3)ccc12 [compound 29, 7-(3-(Aminomethyl)-4-(cyclopropylmethoxy)phenyl)-4-methylquinolin-2-amine Dihydrochloride]
- prediction (CNS) [1]: CNS (+) (classified as a “CNS (+)” molecule if its effective permeability (Pe) in this assay is larger than 4.0 × 10^–6 cm s^–1)
- PDSP targets classified moderate [2]: 4
- PDSP targets classified insignificant [2]: 13
- PDSP targets classified weak [2]: 27
- PDSP targets classified Concerning ([2]; Ki < 100 nM): 1
- off-target binding class, H3 receptor (H3 receptor): concerning (concerning (Ki < 100 nM, or <~2 × nNOS Ki value))

Molecule: Cc1cc(N)nc2cc(-c3ccc(OCc4cncs4)c(CN)c3)ccc12 [compound 37, 7-(3-(Aminomethyl)-4-(thiazol-5-ylmethoxy)phenyl)-4-methylquinolin-2-amine Trihydrochloride]
- prediction (CNS) [1]: CNS (+) (classified as a “CNS (+)” molecule if its effective permeability (Pe) in this assay is larger than 4.0 × 10^–6 cm s^–1)

Molecule: NCCc1ccc(O)c(O)c1 [dopamine, reference compound]
- prediction (CNS) [1]: CNS (−)
